{Cy3} = Cy3 dye attached by azide-DBCO click chemistry

The test system of the data set is Myzus persicae. The data set is described as follows: Cy3-PNA in artificial diet: aphid survival. The format is in vivo. To be noted: 0.5 to 10 mg/L in artificial diet; paper example. The procedure:
Cy3-PNA solutions are formulated with 0, 0.5, 1, 5 or 10 mg/L of Cy3-PNA from Example 11 in 10 mL of 0.5% sucrose and essential amino acids.
To prepare for the treatment, aphids are grown in a lab environment and medium. In a climate-controlled room (16 h light photoperiod; 60±5% RH; 20±2° C.), plants are grown in a mixture of vermiculite and perlite and are infested with aphids. To limit maternal effects or health differences between plants, 5-10 adults from different plants are distributed among 10 two-week-old plants, and allowed to multiply to high density for 5-7 days. For experiments, second and third instar aphids are collected from healthy plants and divided into treatments so that each treatment receives approximately the same number of individuals from each of the collection plants.
Wells of a 96-well plate are filled with 200 μl of artificial aphid diet (Febvay et al., Canadian Journal of Zoology 66(11):2449-2453, 1988) and the plate is covered with parafilm to make a feeding sachet. Artificial diet is either mixed with the solution of sterile water with 0.5% sucrose and essential amino acids only as a negative control, or mixed with Cy3-PNA solutions. Cy3-PNA solutions are mixed with artificial diet to obtain final concentrations between 0.5 to 10 mg/L. […]

For the substance “Cy3-gaatgcagctgc (antisense GAATGCAGCTGC; all peptide nucleic acid (PNA), 5' {Cy3}) [Bcr1 specific Cy3-PNA, antisense PNA against Bcr1 joined to Cy3 dye through click chemistry]”, the “survival rate of aphids vs control” value is given as “decreased”.

Values taken from patent publication US20190246647A1, “COMPOSITIONS AND RELATED METHODS FOR MODULATING ENDOSYMBIONTS” (Flagship Pioneering Innovations V, Inc., priority 2017, published 2019).
